Laboratory results: PMC12544700, “Identification of a Small Secretoneurin Derivative That Inhibits CaMKIIδ Activity” (Journal of Cellular and Molecular Medicine, 2025)
Peptide text beside a SMILES is read from it. * marks the point of attachment. Biotin = O=C1N[C@H]2[C@H](CS[C@H]2CCCCC(=O)*)N1; Ahx = NCCCCCC(=O)O

Key:
human His‐CaMKIIδ‐T287D [1] = molecular target: T1, human His‐CaMKIIδ‐T287D (Homo sapiens, UniProt Q13557, T287D); assay: ELISA-based binding to human His‐CaMKIIδ‐T287D; conditions: biotin‐ahx‐SN‐db‐short; values relative to biotin‐ahx‐Scram; Figure S2B, n = 6
T1 construct: Recombinant human His‐CaMKIIδ‐T287D and rat His‐CaMKIIδ‐T287D full‐length proteins; His; purchased Genscript Corp (custom made)
Description: (§1) A 96‐well microplate was coated with 1 μg/well of rat or human recombinant His‐CaMKIIδ‐T287D or CaMKIIδ fragments (custom made by Genscript) in 1× PBS overnight at 4°C with gentle tilting. Wells were washed with 1× PBS‐t (0.1% Tween‐20) and blocked with 0.5% gelatin (G‐1890 Gelatin type A, Sigma Merck, Darmstadt, Germany) or BSA (805095 30% BSA (Rinderalbumin 30%), Norsk Labex, Høvik, Norway) for 1 h at room temperature (RT), then incubated with 5 μL of biotinylated peptide (1 mM) for 2 h at 37°C with gentle tilting. The wells were then washed five times with 1× PBS‐t. To detect binding, the wells were incubated with a monoclonal anti‐biotin‐HRP conjugated antibody (1:5000 dilution, A‐0185, Sigma) for 30 min at RT. The washing steps were repeated, and the plate was incubated with the Ultra TMB solution (1‐step Ultra TMB‐ELISA Substrate Solution 34028, Thermo Fischer Scientific, Waltham, MA, USA) for 30 min at RT with gentle tilting. The reaction was stopped by adding 2 N HCl (100 μL), and the signal was measured at 450 nm by a plate reader (Hidex Sense Microplate Reader, Åbo, Finland). For the competition assay, 20 μL (1 mM) of T‐site binding peptides AKAP18δ‐N1, CN21 or CN27 (without any biotin tags) were incubated in the same well with 5 μL (1 mM) of SN biotinylated peptides. […]

human His‐CaMKIIδ‐T287D [2] = molecular target: T1, human His‐CaMKIIδ‐T287D; assay: CaMKII pull-down with biotinylated peptides on streptavidin beads; assay type: binding; conditions: biotin‐SN‐db‐short vs biotin‐SN; immunoblot; Figure S2A, n = 8
Description: In the CaMKII pull‐down assay, the biotinylated peptides (20 μL) were coupled to 50 μL of streptavidin magnetic beads (88816, Thermo Fisher) in PBS for 2 h at 4°C with rotation. The bead‐bound peptides were thereafter incubated with 1 μg of human His‐CaMKIIδ‐T287D in 300 μL of PBS or PBS with 1% BSA for 2 h at 4°C with rotation. The protein complexes attached to the beads were then washed three times in 300 μL of IP buffer (20 mM Hepes, pH 7.5, 150 mM NaCl, 1 mM EDTA, 1% Triton X‐100, supplemented with complete protease inhibitor cocktail and phosphatase inhibitor cocktail) or PBS. Samples were boiled in SDS loading buffer at 95°C for 5 min before western blot analysis.
Lysates and immunoprecipitates were separated on 12% or 4%–15% Criterion TGX precast gels (5671044 and 5671084, Biorad, Hercules, CA, USA), blotted onto PVDF membranes (1704157 by Biorad or 03010040001 by Sigma Merck) and reversibly stained with Revert 700 Total Protein Stain (Li‐COR Biosciences, Lincoln, NE, USA). […] Blots were developed using ECL (RPN2236, GE Healthcare, Chicago, IL, USA) after four washing steps of 10 min in TBS‐t and the chemiluminescence signals were detected by Azure Biosystems 600 (Dublin, CA, USA). […] ImageJ [13] was used to quantify the blots. […]

[3] = test system: CaMKIIδ fragments (aa 1–74, 1–165, 1–282, 1–311, 69–282); assay: ELISA-based binding to CaMKIIδ fragments; parameters: species or system rat; conditions: biotinylated peptide; fragments coated in wells; relative to Scram; Figure 2B, n = 9–13
Description: Recombinant human His‐CaMKIIδ‐T287D and rat His‐CaMKIIδ‐T287D full‐length proteins (T287D mutated to mimic active kinases) and rat His‐CaMKIIδ (1–74), rat His‐CaMKIIδ (1–165), rat His‐CaMKIIδ (1–282), rat His‐CaMKIIδ‐T287D (1–311), and rat His‐CaMKIIδ (69–282) recombinant fragments were generated by Genscript Corp.
as §1, with “The washing steps were repeated, and the plate was incubated with the Ultra TMB solution (1‐step Ultra TMB‐ELISA Substrate Solution 34028, Thermo Fischer Scientific, Waltham, MA, USA) for 30 min at RT with gentle tilting.” left out, “Finland).” for “Finland). For the competition assay, 20 μL (1 mM) of T‐site binding peptides AKAP18δ‐N1, CN21 or CN27 (without any biotin tags) were incubated in the same well with 5 μL (1 mM) of SN biotinylated peptides.”

[4] = molecular target: T2, Recombinant rat CaMKIIδ‐T287D (Rattus norvegicus, UniProt P15791, T287D); assay: ELISA-based competition assay with T‐site binding peptides; conditions: 5 μL 1 mM biotin‐SN‐db‐short with 20 μL 1 mM untagged competitor; Figure 2C, n = 4–12
T2 construct: Recombinant human His‐CaMKIIδ‐T287D and rat His‐CaMKIIδ‐T287D full‐length proteins; His; purchased Genscript Corp (custom made)
Description: The wells were then washed five times with 1× PBS‐t. […] For the competition assay, 20 μL (1 mM) of T‐site binding peptides AKAP18δ‐N1, CN21 or CN27 (without any biotin tags) were incubated in the same well with 5 μL (1 mM) of SN biotinylated peptides.

T1 sequence (Q13557 whole entry T287D): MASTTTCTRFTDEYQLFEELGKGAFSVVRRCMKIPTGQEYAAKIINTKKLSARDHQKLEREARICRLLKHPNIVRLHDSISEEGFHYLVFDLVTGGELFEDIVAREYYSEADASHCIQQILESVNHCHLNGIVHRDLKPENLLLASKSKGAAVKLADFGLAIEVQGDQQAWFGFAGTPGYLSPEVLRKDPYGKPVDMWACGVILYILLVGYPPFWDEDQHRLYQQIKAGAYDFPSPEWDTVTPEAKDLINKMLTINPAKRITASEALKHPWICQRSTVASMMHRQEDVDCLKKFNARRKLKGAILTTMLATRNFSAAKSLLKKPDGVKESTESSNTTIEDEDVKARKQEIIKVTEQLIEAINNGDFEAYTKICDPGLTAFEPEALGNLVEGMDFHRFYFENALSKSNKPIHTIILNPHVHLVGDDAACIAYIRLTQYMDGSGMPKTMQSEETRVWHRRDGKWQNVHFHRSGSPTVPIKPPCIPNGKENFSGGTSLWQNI

CC(C)C[C@H](NC(=O)[C@H](CCC(=O)O)NC(=O)[C@H](CCC(N)=O)NC(=O)[C@H](Cc1ccccc1)NC(=O)[C@H](Cc1ccccc1)NC(=O)[C@H](CO)NC(=O)[C@H](CCC(=O)O)NC(=O)[C@H](Cc1ccccc1)NC(=O)[C@@H](NC(=O)[C@H](C)NC(=O)[C@H](CC(C)C)NC(=O)[C@H](CO)NC(=O)[C@H](CCC(N)=O)NC(=O)[C@@H]1CCCN1C(=O)[C@@H](NC(=O)[C@H](Cc1ccc(O)cc1)NC(=O)[C@H](CCC(N)=O)NC(=O)[C@H](CCC(=O)O)NC(=O)CCCCCNC(=O)CCCC[C@@H]1SC[C@@H]2NC(=O)N[C@@H]21)[C@@H](C)O)[C@@H](C)O)C(=O)NCC(=O)N[C@@H](CCCCN)C(=O)O [SN‐db‐short] ({Biotin-Ahx}-EQYTPQSLATFESFFQELGK-OH; N-terminus and C-terminus assumed)
Binding to recombinant human CaMKIIδ‐T287D (ELISA) (human His‐CaMKIIδ‐T287D [1]): increased binding
Binding to recombinant human CaMKIIδ‐T287D vs. native SN (pull down) (human His‐CaMKIIδ‐T287D [2]): increased binding
Binding to CaMKIIδ fragments [3]: binding was detected for all fragments
SN‐db‐short binding to CaMKIIδ‐T287D in presence of competitor peptides AKAP18δ‐N1, CN21, CN27 [4]: only marginally outcompeted
